Counter-ions that a name gives are not always drawn.

This experiment deals with T1, BACE-2 (Homo sapiens, UniProt Q9Y5Z0).
T1 construct: Recombinant BACE-2 (extracellular domain, expressed in baculovirus and purified using standard methods); made in house
T1 sequence (Q9Y5Z0 63-473 limits assumed): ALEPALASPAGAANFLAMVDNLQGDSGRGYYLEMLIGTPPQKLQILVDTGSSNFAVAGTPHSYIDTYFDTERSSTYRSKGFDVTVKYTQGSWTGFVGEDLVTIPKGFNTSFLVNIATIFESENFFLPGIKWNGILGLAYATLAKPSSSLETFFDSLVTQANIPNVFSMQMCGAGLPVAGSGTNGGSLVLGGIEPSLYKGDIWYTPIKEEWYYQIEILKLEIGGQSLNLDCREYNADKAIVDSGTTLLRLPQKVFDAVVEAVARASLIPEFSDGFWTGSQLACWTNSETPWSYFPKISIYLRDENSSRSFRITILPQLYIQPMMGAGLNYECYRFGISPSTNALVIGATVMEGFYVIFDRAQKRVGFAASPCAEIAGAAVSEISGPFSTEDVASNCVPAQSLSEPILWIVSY
Nature of the experiment: assay for inhibition of BACE-2. The format is biochemical.
The term IC50 denotes the concentration that inhibits the measured activity by half. Read a low IC50 as greater potency in that assay. Regarding `COCc1cnc(C(=O)Nc2ccc(F)c([C@]3(C(F)F)COCC(N)=N3)c2)c(Cl)c1` [Example 183, 3-Chloro-5-methoxymethyl-pyridine-2-carboxylic acid [3-((R)-5-amino-3-di-fluoromethyl-3,6-dihydro-2H-[1,4]oxazin-3-yl)-4-fluoro-phenyl]-amide hydrochloride], the IC50 is 4940 nM.
`NC1=N[C@@](c2cc(NC(=O)c3ncc(OCF)cc3Cl)ccc2F)(C(F)F)COC1` [Example 184, 3-Chloro-5-fluoromethoxy-pyridine-2-carboxylic acid [3-((R)-5-amino-3-di-fluoromethyl-3,6-dihydro-2H-[1,4]oxazin-3-yl)-4-fluoro-phenyl]-amide hydrochloride]: the IC50 came out at 47 nM.
Turning to `NC1=N[C@@](c2cc(NC(=O)c3ncc(OC(F)F)cc3Cl)ccc2F)(C(F)F)COC1` [Example 185, 3-Chloro-5-difluoromethoxy-pyridine-2-carboxylic acid [3-((R)-5-amino-3-difluoromethyl-3,6-dihydro-2H-[1,4]oxazin-3-yl)-4-fluoro-phenyl]-amide hydrochloride], it took 199 nM to reach half-maximal inhibition (IC50).
In the case of `CN1CC(N)=NC(C)(c2cc(NC(=O)c3ccc(Br)cn3)ccc2F)C1=O` (stereo not drawn) [Example 186, 5-Bromo-pyridine-2-carboxylic acid [3-(6-amino-2,4-dimethyl-3-oxo-2,3,4,5-tetrahydro-pyrazin-2-yl)-4-fluoro-phenyl]-amide], the IC50 is 9110 nM. Against the preceding compound, the IC50 is about 46-fold higher.
Turning to `CN1CC(N)=NC(C)(c2cc(NC(=O)c3ccc(Br)cn3)ccc2F)C1` (stereo not drawn) [Example 187, 5-Bromo-pyridine-2-carboxylic acid [3-(6-amino-2,4-dimethyl-2,3,4,5-tetrahydro-pyrazin-2-yl)-4-fluoro-phenyl]-amide], inhibition was half-maximal at 104 nM (IC50).
Consider `CN1CC(N)=NC(C)(c2cccc(NC(=O)c3ccc(Br)cn3)c2)C1=O` (stereo not drawn) [Example 188, 5-Bromo-pyridine-2-carboxylic acid [3-(6-amino-2,4-dimethyl-3-oxo-2,3,4,5-tetrahydro-pyrazin-2-yl)-phenyl]-amide], for which the IC50 is 798 nM.
`CN1CC(C)(c2cc(NC(=O)c3ccc(Br)cn3)ccc2F)N=C(N)C1=O` (stereo not drawn) [Example 189, 5-Bromo-pyridine-2-carboxylic acid [3-(6-amino-2,4-dimethyl-5-oxo-2,3,4,5-tetrahydro-pyrazin-2-yl)-4-fluoro-phenyl]-amide hydrochloride]: the midpoint of inhibition, the IC50, lay at 49 nM.
With `CN1CC(C)(c2cc(NC(=O)c3ccc(Cl)cn3)ccc2F)N=C(N)C1=O` (stereo not drawn) [Example 190, 5-Chloro-pyridine-2-carboxylic acid [3-(6-amino-2,4-dimethyl-5-oxo-2,3,4,5-tetrahydro-pyrazin-2-yl)-4-fluoro-phenyl]-amide hydrochloride], the concentration for half-maximal inhibition (IC50) worked out at 35 nM.
In turn, `CCN1CC(C)(c2cc(NC(=O)c3ccc(Br)cn3)ccc2F)N=C(N)C1=O` (stereo not drawn) [Example 191, 5-Bromo-pyridine-2-carboxylic acid [3-(6-amino-4-ethyl-2-methyl-5-oxo-2,3,4,5-tetrahydro-pyrazin-2-yl)-4-fluoro-phenyl]-amide hydrochloride] displayed a half-inhibitory concentration (IC50) of 30 nM. The IC50 values of the last two compounds are within 1.5-fold of each other.
Take `CN1CC(C)(c2cc(NC(=O)c3ncc(Cl)cc3Cl)ccc2F)N=C(N)C1=O` (stereo not drawn) [Example 192, 3,5-Dichloro-pyridine-2-carboxylic acid [3-(6-amino-2,4-dimethyl-5-oxo-2,3,4,5-tetrahydro-pyrazin-2-yl)-4-fluoro-phenyl]-amide hydrochloride]: it took 13 nM to reach half-maximal inhibition (IC50).
In turn, `CCN1CC(C)(c2cc(NC(=O)c3ncc(Cl)cc3Cl)ccc2F)N=C(N)C1=O` (stereo not drawn) [Example 193, 3,5-Dichloro-pyridine-2-carboxylic acid [3-(6-amino-4-ethyl-2-methyl-5-oxo-2,3,4,5-tetrahydro-pyrazin-2-yl)-4-fluoro-phenyl]-amide hydrochloride] had an IC50 of 8 nM.
`CC(C)N1CC(C)(c2cc(NC(=O)c3ccc(Br)cn3)ccc2F)N=C(N)C1=O` (stereo not drawn) [Example 194, 5-Bromo-pyridine-2-carboxylic acid [3-(6-amino-4-isopropyl-2-methyl-5-oxo-2,3,4,5-tetrahydro-pyrazin-2-yl)-4-fluoro-phenyl]-amide hydrochloride] yielded an IC50 of 47 nM.
Take `COCCN1CC(C)(c2cc(NC(=O)c3ncc(Cl)cc3Cl)ccc2F)N=C(N)C1=O` (stereo not drawn) [Example 195, 3,5-Dichloro-pyridine-2-carboxylic acid {3-[6-amino-4-(2-methoxy-ethyl)-2-methyl-5-oxo-2,3,4,5-tetrahydro-pyrazin-2-yl]-4-fluoro-phenyl}-amide hydrochloride]: the IC50 turned out to be 6 nM.
Compound `COCCN1CC(C)(c2cc(NC(=O)c3ccc(Br)cn3)ccc2F)N=C(N)C1=O` (stereo not drawn) [Example 196, 5-Bromo-pyridine-2-carboxylic acid {3-[6-amino-4-(2-methoxy-ethyl)-2-methyl-5-oxo-2,3,4,5-tetrahydro-pyrazin-2-yl]-4-fluoro-phenyl}-amide hydrochloride] showed an IC50 of 17 nM.
`Cn1cc(N2CC(C)(c3cc(NC(=O)c4ccc(Br)cn4)ccc3F)N=C(N)C2=O)cn1` (stereo not drawn) [Example 197, 5-Bromo-pyridine-2-carboxylic acid {3-[6-amino-2-methyl-4-(1-methyl-1H-pyrazol-4-yl)-5-oxo-2,3,4,5-tetrahydro-pyrazin-2-yl]-4-fluoro-phenyl}-amide hydrochloride] returned an IC50 of 18 nM. The IC50 values of the last two compounds are within 1.5-fold of each other.
Regarding `CC1(c2cc(NC(=O)c3ccc(Br)cn3)ccc2F)CN(c2cccnc2)C(=O)C(N)=N1` (stereo not drawn) [Example 198, 5-Bromo-pyridine-2-carboxylic acid [3-(6-amino-2-methyl-5-oxo-4-pyridin-3-yl-2,3,4,5-tetrahydro-pyrazin-2-yl)-4-fluoro-phenyl]-amide hydrochloride], it took 9 nM to reach half-maximal inhibition (IC50).
Next, `CCN1CC(C)(c2cc(NC(=O)c3ccc(C#N)cn3)ccc2F)N=C(N)C1=O` (stereo not drawn) [Example 199, 5-Cyano-pyridine-2-carboxylic acid [3-(6-amino-4-ethyl-2-methyl-5-oxo-2,3,4,5-tetrahydro-pyrazin-2-yl)-4-fluoro-phenyl]-amide hydrochloride]: 132 nM; `NC1=NC(c2cc(NC(=O)c3ccc(Br)cn3)ccc2F)(C(F)F)CNC1` (stereo not drawn) [Example 201, 5-Bromo-pyridine-2-carboxylic acid [3-(6-amino-2-difluoromethyl-2,3,4,5-tetrahydro-pyrazin-2-yl)-4-fluoro-phenyl]-amide]: 24 nM; `N#Cc1ccc(C(=O)Nc2ccc(F)c(C3(C(F)F)CNCC(N)=N3)c2)nc1` (stereo not drawn) [Example 202, 5-Cyano-pyridine-2-carboxylic acid [3-(6-amino-2-difluoromethyl-2,3,4,5-tetrahydro-pyrazin-2-yl)-4-fluoro-phenyl]-amide]: 66 nM.
`N#Cc1ccc(C(=O)Nc2ccc(F)c(C3(C(F)F)CNC(=O)C(N)=N3)c2)nc1` (stereo not drawn) [Example 203, 5-Cyano-pyridine-2-carboxylic acid [3-(6-amino-2-difluoromethyl-5-oxo-2,3,4,5-tetrahydro-pyrazin-2-yl)-4-fluoro-phenyl]-amide] registered an IC50 of 7 nM.
Next, `COC(=O)N1CC(N)=NC(c2cc(NC(=O)c3ccc(Br)cn3)ccc2F)(C(F)F)C1` (stereo not drawn) [Example 204, 5-Amino-3-{5-[(5-bromo-pyridine-2-carbonyl)-amino]-2-fluoro-phenyl}-3-difluoromethyl-3,6-dihydro-2H-pyrazine-1-carboxylic acid methyl ester]: 10 nM.
